Among the data in patent US20250325677A1, “STAT6 DEGRADERS” (Gilead Sciences, Inc., priority 2024, published 2025) are DC50 and EC50 values, retold here.

One assay deals with STAT6 (Homo sapiens (Human), UniProt P42226). Nature of the assay: STAT6 degrader assay (HiBiT, HeLa LgBiT clone 4.14). Format: cell-based. Particulars: HeLa LgBiT clone 4.14, 4-24 h; geometric mean; given for compounds with >80% Emax; read-out: STAT6 degradation DC50. The method, boiled down:
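DC50 (nM) comes from luminescence of non-degraded STAT6 read 0.5 h after Nano-GLO addition, following 4-24 h compound exposure at 37° C. Cells were HeLa clone 4.14 expressing LgBiT with a CRISPR HiBiT tag on endogenous STAT6; 50 μM terfenadine set full degradation.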
For orientation: HiBiT is a short tag that completes a luciferase, so light tracks the accessible tagged protein.

A further assay has as its system eotaxin-3 release. Put plainly: Human whole blood eotaxin-3 assay (IL-4 stimulated). Particulars: human whole blood, IL-4 0.4 nM, 48 hours; geometric mean; given for compounds with >80% Emax; read-out: Eotaxin-3 EC50. It counts as cell-based. The method, then:
Human Whole Blood Eotaxin-3 Assay
This was a human whole blood assay using recombinant human Interleukin 4 to stimulate the blood and measuring the ability of the test compounds to inhibit eotaxin-3 release. Compounds or media were added to the wells and incubated together with human whole blood for 120 minutes at 37° C. Subsequently, recombinant IL-4 was added at a final concentration of 0.4 nM. The plates were incubated for 48 hours.
Test compounds which inhibited eotaxin-3 release upon stimulation with human IL-4 (E. coli) interfered with the signaling in human whole blood are expected to have activity in human beings. […] The EC50 value indicates at which concentration test compounds were active and in inhibiting the eotaxin-3 release. As eotaxin-3 release is down-stream of STAT6 signaling both STAT6 inhibitors and STAT6 degraders are active in this assay.
The data from the human whole blood eotaxin-3 assay is shown below for Examples 3e27, 3e50, 3e17, and 3e51 (where the effect in % is plotted against the test concentration in M on a log-scale).

Sequence of STAT6 (P42226 whole entry): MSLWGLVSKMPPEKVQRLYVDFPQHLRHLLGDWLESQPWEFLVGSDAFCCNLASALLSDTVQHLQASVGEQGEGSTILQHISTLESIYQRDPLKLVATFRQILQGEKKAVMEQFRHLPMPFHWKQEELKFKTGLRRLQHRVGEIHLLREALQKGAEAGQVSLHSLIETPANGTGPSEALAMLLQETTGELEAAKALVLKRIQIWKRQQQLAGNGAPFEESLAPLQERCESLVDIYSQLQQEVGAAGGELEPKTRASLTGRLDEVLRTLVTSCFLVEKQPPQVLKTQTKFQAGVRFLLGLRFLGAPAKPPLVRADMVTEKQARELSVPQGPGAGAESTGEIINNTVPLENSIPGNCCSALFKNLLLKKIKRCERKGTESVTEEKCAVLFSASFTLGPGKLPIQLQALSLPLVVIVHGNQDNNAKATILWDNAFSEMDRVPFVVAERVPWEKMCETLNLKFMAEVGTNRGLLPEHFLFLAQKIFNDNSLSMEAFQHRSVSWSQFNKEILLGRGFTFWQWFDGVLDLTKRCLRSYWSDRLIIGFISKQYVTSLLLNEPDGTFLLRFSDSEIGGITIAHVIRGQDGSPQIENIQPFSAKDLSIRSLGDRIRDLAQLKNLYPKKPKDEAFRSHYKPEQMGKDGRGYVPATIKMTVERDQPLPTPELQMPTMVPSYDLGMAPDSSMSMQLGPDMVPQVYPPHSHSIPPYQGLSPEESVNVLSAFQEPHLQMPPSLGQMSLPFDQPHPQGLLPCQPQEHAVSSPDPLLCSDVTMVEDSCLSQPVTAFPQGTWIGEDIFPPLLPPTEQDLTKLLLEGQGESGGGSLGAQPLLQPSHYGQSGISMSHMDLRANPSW

`C[C@H]1CN(Cc2ccc3c(c2)n(C)c(=O)n3C2CCC(=O)NC2=O)CCN1CC1CCN(C(=O)c2ccc(C3CCN([C@@H](C)c4cc5c(-c6ccc(N)nc6)ccnc5n4C)CC3)cc2)CC1` (stereo partly drawn) [Example 3e16, 3-(5-(((S)-4-((1-(4-(1-((S)-1-(4-(6-aminopyridin-3-yl)-1-methyl-1H-pyrrolo[2,3-b]pyridin-2-yl)ethyl)piperidin-4-yl)benzoyl)piperidin-4-yl)methyl)-3-methylpiperazin-1-yl)methyl)-3-methyl-2-oxo-2,3-dihydro-1H-benzo[d]imidazol-1-yl)piperidine-2,6-dione]: the DC50 (as a rule, the concentration at which degradation of the target reaches its halfway point) at STAT6 is 0.4 nM. The EC50 (in general, the concentration giving half of the maximal effect) in the assay with eotaxin-3 release came to 1.3 nM.

Take `C[C@H]1CN(Cc2ccc3c(c2)n(C2CC2)c(=O)n3C2CCC(=O)NC2=O)CCN1CC1CCN(C(=O)c2ccc(C3CCN([C@@H](C)c4cc5c(-c6ccc(N)nc6)ccnc5n4C)CC3)cc2)CC1` (stereo partly drawn) [Example 3e17, 3-(5-(((S)-4-((1-(4-(1-((S)-1-(4-(6-aminopyridin-3-yl)-1-methyl-1H-pyrrolo[2,3-b]pyridin-2-yl)ethyl)piperidin-4-yl)benzoyl)piperidin-4-yl)methyl)-3-methylpiperazin-1-yl)methyl)-3-cyclopropyl-2-oxo-2,3-dihydro-1H-benzo[d]imidazol-1-yl)piperidine-2,6-dione]: the DC50 at STAT6 stood at 0.8 nM. Also, the EC50 with eotaxin-3 release amounted to 2.8 nM.

As for `C[C@@H]1CN(Cc2ccc3c(c2)n(C)c(=O)n3C2CCC(=O)NC2=O)C[C@H](C)N1CC1CCN(C(=O)c2ccc(C3CCN([C@@H](C)c4cc5c(-c6ccc(N)nc6)ccnc5n4C)CC3)cc2)CC1` (stereo partly drawn) [Example 3e18, 3-(5-((4-((1-(4-(1-((S)-1-(4-(6-aminopyridin-3-yl)-1-methyl-1H-pyrrolo[2,3-b]pyridin-2-yl)ethyl)-piperidin-4-yl)benzoyl)piperidin-4-yl)methyl)-3,5-cis-dimethylpiperazin-1-yl)methyl)-3-methyl-2-oxo-2,3-dihydro-1H-benzo[d]imidazol-1-yl)piperidine-2,6-dione], at STAT6, the DC50 was determined as 1.4 nM. In the assay on eotaxin-3 release, the EC50 amounted to 5.5 nM.

For `CC[C@H]1CN(Cc2ccc3c(c2)n(C)c(=O)n3C2CCC(=O)NC2=O)CCN1CC1CCN(C(=O)c2ccc(C3CCN([C@@H](C)c4cc5c(-c6ccc(N)nc6)ccnc5n4C)CC3)cc2)CC1` (stereo partly drawn) [Example 3e23, 3-(5-(((S)-4-((1-(4-(1-((S)-1-(4-(6-aminopyridin-3-yl)-1-methyl-1H-pyrrolo[2,3-b]pyridin-2-yl)ethyl)piperidin-4-yl)benzoyl)piperidin-4-yl)methyl)-3-ethylpiperazin-1-yl)methyl)-3-methyl-2-oxo-2,3-dihydro-1H-benzo[d]imidazol-1-yl)piperidine-2,6-dione], the DC50 at STAT6 amounted to 0.8 nM. Also, the EC50 in the assay on eotaxin-3 release is 4.2 nM.

Turning to `COCc1nc2cc(-c3ccnc4c3cc([C@H](C)N3CCC(c5ccc(C(=O)N6CCC(CN7CCN(Cc8ccc9c(c8)n(C8CC8)c(=O)n9C8CCC(=O)NC8=O)C[C@@H]7C)CC6)cc5)CC3)n4C)ccc2[nH]1` (stereo partly drawn) [Example 3e27, 3-(3-cyclo-propyl-5-(((S)-4-((1-(4-(1-((S)-1-(4-(2-(methoxymethyl)-1H-benzo[d]imidazol-5-yl)-1-methyl-1H-pyrrolo[2,3-b]pyridin-2-yl)ethyl)piperidin-4-yl)benzoyl)piperidin-4-yl)methyl)-3-methylpiperazin-1-yl)methyl)-2-oxo-2,3-dihydro-1H-benzo[d]imidazol-1-yl)piperidine-2,6-dione], the half-maximal degradation concentration (DC50) at STAT6 amounted to 0.4 nM. For the same compound, the half-maximal effective concentration (EC50) with eotaxin-3 release stood at 2.7 nM.

For `COC[C@H]1CN(Cc2ccc3c(c2)n(C)c(=O)n3C2CCC(=O)NC2=O)CCN1CC1CCN(C(=O)c2ccc(C3CCN([C@@H](C)c4cc5c(-c6ccc(N)nc6)ccnc5n4C)CC3)cc2)CC1` (stereo partly drawn) [Example 3e28, 3-(5-(((R)-4-((1-(4-(1-((S)-1-(4-(6-aminopyridin-3-yl)-1-methyl-1H-pyrrolo[2,3-b]pyridin-2-yl)ethyl)piperidin-4-yl)benzoyl)piperidin-4-yl)methyl)-3-(methoxymethyl)piperazin-1-yl)methyl)-3-methyl-2-oxo-2,3-dihydro-1H-benzo[d]imidazol-1-yl)piperidine-2,6-dione], the DC50 at STAT6 came to 0.2 nM. In addition, the concentration for a half-maximal effect (EC50) with eotaxin-3 release was 1.1 nM.

For `C[C@@H](c1cc2c(-c3ccc(N)nc3)ccnc2n1C)N1CCC(c2ccc(C(=O)N3CCC(CN4[C@@H](C)CN(Cc5ccc6c(c5)n(C)c(=O)n6C5CCC(=O)NC5=O)C[C@@H]4C)CC3)cc2)CC1` (stereo partly drawn) [Example 3e29, 3-(5-(((3S,5S)-4-((1-(4-(1-((S)-1-(4-(6-aminopyridin-3-yl)-1-methyl-1H-pyrrolo [2,3-b]pyridin-2-yl)ethyl)piperidin-4-yl)benzoyl)piperidin-4-yl)methyl)-3,5-dimethylpiperazin-1l-yl)methyl)-3-methyl-2-oxo-2,3-dihydro-1H-benzo[d]imidazol-1-yl)piperidine-2,6-dione], the DC50 on STAT6 was determined as 0.4 nM. Besides, the half-maximal effective concentration (EC50) in the assay with eotaxin-3 release stood at 2.3 nM.

As to `C[C@@H](c1cc2c(-c3ccc(N)nc3)ccnc2n1C)N1CCC(c2ccc(C(=O)N3CCC(CN4CCN(Cc5cc6c(cc5Cl)n(C5CCC(=O)NC5=O)c(=O)n6C)CC4)CC3)cc2)CC1` (stereo partly drawn) [Example 3e30, 3-(5-((4-((1-(4-(1-((S)-1-(4-(6-aminopyridin-3-yl)-1-methyl-1H-pyrrolo[2,3-b]pyridin-2-yl)ethyl)piperidin-4-yl)benzoyl)piperidin-4-yl)methyl)piperazin-1-yl)methyl)-6-chloro-3-methyl-2-oxo-2,3-dihydro-1H-benzo[d]imidazol-1-yl)piperidine-2,6-dione], the 50% degradation concentration (DC50) on STAT6 was 7.2 nM. Moreover, in the assay on eotaxin-3 release, the EC50 came to 36.9 nM.

Take `C[C@@H](c1cc2c(-c3ccc(N)nc3)ccnc2n1C)N1CCC(c2ccc(C(=O)N3CCC(CN4CCN(Cc5ccc6c(c5)n(C)c(=O)n6C5CCC(=O)NC5=O)CC4C(F)(F)F)CC3)cc2)CC1` (stereo partly drawn) [Example 3e31, 3-(5-((4-((1-(4-(1-((S)-1-(4-(6-aminopyridin-3-yl)-1-methyl-1H-pyrrolo[2,3-b]pyridin-2-yl)ethyl)piperidin-4-yl)benzoyl)piperidin-4-yl)methyl)-3-(trifluoromethyl)piperazin-1-yl)methyl)-3-methyl-2-oxo-2,3-dihydro-1H-benzo[d]imidazol-1-yl)piperidine-2,6-dione]: the DC50 on STAT6 amounted to 2 nM. The 50% effective concentration (EC50) with eotaxin-3 release is 9.3 nM.

Take `C[C@@H](c1cc2c(-c3ccc(N)nc3)ccnc2n1C)N1CCC(c2ccc(C(=O)N3CCC(F)(CN4CCN(Cc5ccc6c(c5)n(C)c(=O)n6C5CCC(=O)NC5=O)CC4)CC3)cc2)CC1` (stereo partly drawn) [Example 3e32, 3-(5-((4-((1-(4-(1-((S)-1-(4-(6-aminopyridin-3-yl)-1-methyl-1H-pyrrolo[2,3-b]pyridin-2-yl)ethyl)piperidin-4-yl)benzoyl)-4-fluoropiperidin-4-yl)methyl)piperazin-1-yl)methyl)-3-methyl-2-oxo-2,3-dihydro-1H-benzo[d]imidazol-1-yl)piperidine-2,6-dione]: on STAT6, the 50% degradation concentration (DC50) was determined as 1.6 nM. Moreover, the EC50 with eotaxin-3 release is 7.8 nM.

Regarding `C[C@@H](c1cc2c(-c3ccc(N)nc3)ccnc2n1C)N1CCC(c2ccc(C(=O)N3CCC(CN4CCN(Cc5cc6c(cc5F)n(C5CCC(=O)NC5=O)c(=O)n6C)CC4)CC3)cc2)CC1` (stereo partly drawn) [Example 3e33, 3-(5-((4-((1-(4-(1-((S)-1-(4-(6-aminopyridin-3-yl)-1-methyl-1H-pyrrolo[2,3-b]pyridin-2-yl)ethyl)piperidin-4-yl)benzoyl)piperidin-4-yl)methyl)piperazin-1-yl)methyl)-6-fluoro-3-methyl-2-oxo-2,3-dihydro-1H-benzo[d]imidazol-1-yl)piperidine-2,6-dione], the DC50 at STAT6 is 1.8 nM. The half-maximal effective concentration (EC50) in the assay with eotaxin-3 release amounted to 4.9 nM.
